According to patent publication US12532883B2, “Powder compositions comprising salts of C4 to C10 oxocarboxylic acids and of unsaturated or aromatic C6 to C10 carboxylic acids” (Cosphatec GmbH, priority 2019, dated 2026):
In brackets after ≈: the same amount, converted by molar mass. Where two headings read alike, the source gives them in different places.

What was measured:
Solubility = format: physicochemical; settings: for solubility: 20° C.
Escherichia coli = settings: cited from earlier work
Staphylococcus aureus = settings: cited from earlier work
Pseudomonas aeruginosa = settings: cited from earlier work
Candida albicans = settings: cited from earlier work
Aspergillus brasiliensis = settings: cited from earlier work
[1] = 20° C., Echa Registration Dossier; cited from earlier work
Hygroscopicity = format: physicochemical

water solubility (in words) (Solubility; water) | solubility (Solubility; organic solvent or mixture, ethanol, read-out: solubility in ethanol) | solubility (Solubility; water, read-out: solubility in water) | hygroscopicity (in words) (Hygroscopicity) | SMILES | MIC (Escherichia coli) | MIC (Staphylococcus aureus) | MIC (Pseudomonas aeruginosa) | MIC (Candida albicans) | MIC (Aspergillus brasiliensis) | solubility in water [1]
good water solubility |  |  |  | CC(=O)CCC(=O)O [levulinic acid, 4-oxovaleric acid] | 0.20% | 0.35% | 0.15% | 0.60% |  | 
low water solubility | 50000 µg/mL (≈ 329000 µM) | 300 µg/mL (≈ 1970 µM) |  | COc1ccc(C(=O)O)cc1 [p-methoxybenzoic acid] | 0.16% | 0.08% | 0.16% | 0.04% | 0.0025% | 200 µg/mL (≈ 1310 µM)
 |  |  | highly hygroscopic | CC(=O)CCC(=O)[O-].[Na+] [sodium levulinate] |  |  |  |  |  | 
 |  |  | non-hygroscopic | COc1ccc(C(=O)[O-])cc1.[Na+] [p-methoxybenzoate salt, sodium p-methoxybenzoate] |  |  |  |  |  | 
